Results from PubChem BioAssay AID248 (DTP/NCI, 2004).
Where “and” joins values, the source holds several entries; their conditions need not be identical. Equal values may be shown once. Inconclusive results and toxic doses are left out. Rule as the data show it: active = T/C of 150% or more; inactive = T/C below 125%.

Tested on: L1210 leukemia ip in BDF1 mice, survival T/C
Experiment: NCI In Vivo Anticancer Drug Screen. Data for tumor model L1210 Leukemia (intraperitoneal) in B6D2F1 (BDF1) mice
Conditions: endpoint: mean survival time, higher = longer survival
Outline: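 Survival endpoint. Drug-treated group vs vehicle group, expressed as T divided by C. Tumor passaged by transplantation.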

[1] = dose: 12.5 mg/kg/injection, schedule: Q01DX009 (ip), vehicle: saline with Tween-80
[2] = dose: 100.0 mg/kg/injection, schedule: Q04DX003 (ip), vehicle: saline with Tween-80
[3] = dose: 200.0 mg/kg/injection, schedule: Q04DX003 (ip), vehicle: saline with Tween-80
[4] = dose: 400.0 mg/kg/injection, schedule: Q01DX009 (ip), vehicle: saline with Tween-80
[5] = dose: 400.0 mg/kg/injection, schedule: Q04DX003 (ip), vehicle: saline with Tween-80
[6] = dose: 100.0 mg/kg/injection, schedule: Q01DX001 (ip), vehicle: saline
[7] = dose: 200.0 mg/kg/injection, schedule: Q01DX001 (ip), vehicle: saline
[8] = dose: 400.0 mg/kg/injection, schedule: Q01DX001 (ip), vehicle: saline
[9] = dose: 100.0 mg/kg/injection, schedule: Q01DX001 (ip), vehicle: Klucel (hydroxypropylcellulose) (HPC)
[10] = dose: 200.0 mg/kg/injection, schedule: Q01DX001 (ip), vehicle: Klucel (hydroxypropylcellulose) (HPC)
[11] = dose: 400.0 mg/kg/injection, schedule: Q01DX001 (ip), vehicle: Klucel (hydroxypropylcellulose) (HPC)
[12] = dose: 100.0 mg/kg/injection, schedule: Q04DX003 (ip), vehicle: Klucel (hydroxypropylcellulose) (HPC)
[13] = dose: 200.0 mg/kg/injection, schedule: Q04DX003 (ip), vehicle: Klucel (hydroxypropylcellulose) (HPC)
[14] = dose: 400.0 mg/kg/injection, schedule: Q04DX003 (ip), vehicle: Klucel (hydroxypropylcellulose) (HPC)
[15] = dose: 100.0 mg/kg/injection, schedule: Q01DX001 (ip), vehicle: carboxymethylcellulose (CMC)
[16] = dose: 200.0 mg/kg/injection, schedule: Q01DX001 (ip), vehicle: carboxymethylcellulose (CMC)
[17] = dose: 400.0 mg/kg/injection, schedule: Q01DX001 (ip), vehicle: carboxymethylcellulose (CMC)

Measured: T/C

O=C(CCc1ccccc1)NC(=S)Nc1ccc(I)cc1
inactive: [1] 94 % of control and 90 % of control | dose: 100.0 mg/kg/injection, schedule: Q01DX001 (ip), vehicle: saline with Tween-80 106 % of control | dose: 100.0 mg/kg/injection, schedule: Q04DX002 (ip), vehicle: saline with Tween-80 104 % of control | [2] 100 % of control | dose: 200.0 mg/kg/injection, schedule: Q01DX001 (ip), vehicle: saline with Tween-80 103 % of control | dose: 200.0 mg/kg/injection, schedule: Q04DX002 (ip), vehicle: saline with Tween-80 93 % of control and 101 % of control | [3] 97 % of control | dose: 400.0 mg/kg/injection, schedule: Q01DX001 (ip), vehicle: saline with Tween-80 91 % of control | [4] 95 % of control and 99 % of control | dose: 400.0 mg/kg/injection, schedule: Q04DX002 (ip), vehicle: saline with Tween-80 101 % of control and 90 % of control | [5] 96 % of control

CCC/C=C(\C)CCCC
inactive: [6] 97 % of control | [7] 99 % of control | [8] 95 % of control

CCOC(=S)c1ccc(S(=O)(=O)Nc2cccc3ccccc23)cc1
inactive: [9] 97 % of control | [10] 98 % of control | [11] 95 % of control

c1ccc(Cc2[nH]nc(-c3ccccc3)c2N=Nc2ccccc2)cc1
inactive: [9] 94 % of control | [12] 103 % of control | [10] 94 % of control | [13] 103 % of control | [11] 91 % of control | [14] 100 % of control

CC(C)(CC(N)=O)C(=O)O
inactive: dose: 50.0 mg/kg/injection, schedule: Q01DX001 (ip), vehicle: saline 102 % of control | [6] 115 % of control | [7] 113 % of control | [8] 110 % of control

NC(=O)c1ccccc1OCc1ccccc1
inactive: dose: 75.0 mg/kg/injection, schedule: Q04DX003 (ip), vehicle: Klucel (hydroxypropylcellulose) (HPC) 97 % of control | dose: 150.0 mg/kg/injection, schedule: Q04DX003 (ip), vehicle: Klucel (hydroxypropylcellulose) (HPC) 99 % of control | dose: 300.0 mg/kg/injection, schedule: Q04DX003 (ip), vehicle: Klucel (hydroxypropylcellulose) (HPC) 91 % of control

C=CCSc1ccc([N+](=O)[O-])cc1
inactive: dose: 50.0 mg/kg/injection, schedule: Q01DX001 (ip), vehicle: carboxymethylcellulose (CMC) 101 % of control | [15] 95 % of control | [16] 104 % of control | [17] 98 % of control

O=C(O)c1ccccc1C(=O)OC1CC2CCC1C2 (stereo not drawn)
inactive: [9] 100 % of control | [10] 94 % of control | [11] 98 % of control

NC(N)=Nc1ccc(C(=O)Oc2ccc([N+](=O)[O-])cc2)cc1
inactive: [2] 108 % of control | [3] 94 % of control | [5] 89 % of control

CNS(=O)(=O)c1ccc(NC(=O)CI)cc1
inactive: dose: 3.0 mg/kg/injection, schedule: Q01DX009 (ip), vehicle: Klucel (hydroxypropylcellulose) (HPC) 112 % of control | dose: 6.0 mg/kg/injection, schedule: Q01DX009 (ip), vehicle: Klucel (hydroxypropylcellulose) (HPC) 96 % of control | dose: 12.0 mg/kg/injection, schedule: Q01DX009 (ip), vehicle: Klucel (hydroxypropylcellulose) (HPC) 108 % of control | dose: 12.5 mg/kg/injection, schedule: Q01DX001 (ip), vehicle: other 96 % of control | dose: 12.5 mg/kg/injection, schedule: Q04DX003 (ip), vehicle: other 93 % of control | dose: 25.0 mg/kg/injection, schedule: Q01DX001 (ip), vehicle: other 96 % of control | dose: 50.0 mg/kg/injection, schedule: Q01DX001 (ip), vehicle: other 88 % of control

S=C1NC2CCCc3ccccc3C2O1 (stereo not drawn)
inactive: [12] 111 % of control | [13] 113 % of control | [14] 107 % of control

c1ccc(-c2cc[s+]s2)cc1
inactive: dose: 12.5 mg/kg/injection, schedule: Q01DX009 (ip), vehicle: water 95 % of control | dose: 12.5 mg/kg/injection, schedule: Q04DX003 (ip), vehicle: water 98 % of control | dose: 25.0 mg/kg/injection, schedule: Q01DX009 (ip), vehicle: water 91 % of control | dose: 25.0 mg/kg/injection, schedule: Q04DX003 (ip), vehicle: water 96 % of control | dose: 50.0 mg/kg/injection, schedule: Q01DX009 (ip), vehicle: water 98 % of control | dose: 50.0 mg/kg/injection, schedule: Q04DX003 (ip), vehicle: water 109 % of control

NP1(N)=NP(N)(N)=NP(N)(N)=N1
inactive: dose: 100.0 mg/kg/injection, schedule: Q04DX002 (ip), vehicle: saline 90 % of control | dose: 200.0 mg/kg/injection, schedule: Q04DX002 (ip), vehicle: saline 93 % of control | dose: 400.0 mg/kg/injection, schedule: Q04DX002 (ip), vehicle: saline 97 % of control

CC(O)CN(CCN(CC(C)O)CC(C)O)CCN(CC(C)O)CC(C)O.O=S(=O)([O-])[O-].[Cu+2] (stereo not drawn)
inactive: dose: 5.0 mg/kg/injection, schedule: Q01DX001 (ip), vehicle: saline 102 % of control | dose: 10.0 mg/kg/injection, schedule: Q01DX001 (ip), vehicle: saline 91 % of control

O=C(O)c1ccc(N=Nc2ncc[nH]2)cc1
inactive: dose: 6.25 mg/kg/injection, schedule: Q01DX009 (ip), vehicle: saline with Tween-80 92 % of control | [1] 96 % of control | dose: 25.0 mg/kg/injection, schedule: Q01DX009 (ip), vehicle: saline with Tween-80 96 % of control | dose: 50.0 mg/kg/injection, schedule: Q01DX009 (ip), vehicle: saline with Tween-80 87 % of control

CC1(C)N=C(N)N=C(N)N1c1cccc(S(=O)(=O)F)c1
inactive: dose: 0.8 mg/kg/injection, schedule: Q01DX009 (ip), vehicle: saline 95 % of control | dose: 4.0 mg/kg/injection, schedule: Q01DX009 (ip), vehicle: saline 95 % of control | dose: 20.0 mg/kg/injection, schedule: Q01DX009 (ip), vehicle: saline 100 % of control | [6] 100 % of control | [7] 102 % of control

COc1cc(/C(C)=C2/SC(=S)NC2=O)cc(OC)c1OC
inactive: [15] 92 % of control | [16] 90 % of control | [17] 95 % of control

N#Cc1oc2ccccc2c1OC(=O)C(F)(F)F
inactive: [2] 100 % of control | [3] 95 % of control

CCCCC1(CC)C(=O)NC(=S)NC1=O
inactive: [6] 114 % of control | [7] 104 % of control

CC(C)=CCC(=O)Oc1ccccc1C(=O)O
inactive: [2] 92 % of control | [3] 102 % of control

CCP(=S)(CC)CCCCP(=S)(CC)CC
inactive: dose: 100.0 mg/kg/injection, schedule: Q01DX009 (ip), vehicle: saline with Tween-80 94 % of control | dose: 200.0 mg/kg/injection, schedule: Q01DX009 (ip), vehicle: saline with Tween-80 89 % of control | [4] 86 % of control

COc1ccc2c(ccc3c2ncc2c(=O)[nH][nH]c23)c1
inactive: dose: 50.0 mg/kg/injection, schedule: Q01DX009 (ip), vehicle: Klucel (hydroxypropylcellulose) (HPC) 92 % of control | dose: 100.0 mg/kg/injection, schedule: Q01DX009 (ip), vehicle: Klucel (hydroxypropylcellulose) (HPC) 92 % of control | dose: 200.0 mg/kg/injection, schedule: Q01DX009 (ip), vehicle: Klucel (hydroxypropylcellulose) (HPC) 92 % of control

O=S1(=O)CCC/C1=C\c1ccccc1
inactive: [9] 121 % of control | [10] 103 % of control | [11] 101 % of control
